What is called melting point is the temperature of the solid-liquid transition. With `CCCc1nn(-c2ccc(C(F)(F)F)cn2)cc1CCCOc1nn(CC)cc1CC(=O)O`, the melting point lay within 105 to 106 °C.
Then `COc1cc(COc2nn(-c3ccccc3)cc2C=O)ccc1OCc1nc(N2CCCCC2)sc1C`, with 180 to 181 °C.
Regarding `O=c1[nH]c2cc(Br)c3c(c2[nH]c1=O)CN(CCc1ccccc1)CC3`, the melting point lay within 290 to 295 °C.
In turn, `CC(=O)Nc1ccc(NC(=O)CN2CCC(Cc3ccc(F)cc3)CC2)cc1` returned a melting point of 173 to 180 °C.
Then `CCOC(=O)c1cn2ccc(NC(=O)c3cc4cc(C(F)(F)F)ccc4n3Cc3cccc(F)c3)cc2n1`, with 282 to 283 °C; and `CC1(C)C(=O)N(CCO)C(=O)N1CN1C(=O)N(CCO)C(=O)C1(C)C`, with 165 to 166 °C; and `Cc1ccc2cc(C(=O)NCCSC(c3ccccc3)(c3ccccc3)c3ccccc3)[nH]c2c1NS(=O)(=O)c1cccs1`, with 245 to 246 °C.
As to `CC1(C)OC(=O)C(C)(N=Nc2ccc(F)cc2Br)C(=O)O1`, the melting point is 92 to 93 °C.
`CS(=O)(=O)NCCCCC(=O)Nc1nc2c(s1)CCCc1ccc(F)cc1-2`: the melting point was 145 to 147 °C.
`NC(=O)c1cccc(C(N)=O)c1N` returned a melting point of 284 to 288 °C.
Consider `Cc1ccccc1C(CCC(=O)O)Oc1cc(OCc2cccc(CCC(=O)O)c2)ccc1C#N` (racemic), for which the melting point is 136 to 137 °C.
With `O=C(Nc1cccnn1)N1CCN(c2ccnc(-c3ccc(F)cc3F)n2)CC1` the figure was 200 to 201 °C; with `CN(Cc1cccc(-c2ccc(CC3SC(=O)NC3=O)cc2)c1)C(=O)Cc1ccccc1` (configuration not stated), 73 °C; with `Cc1ccc(S(=O)(=O)Nc2ccccc2C(=O)C2CC2)cc1`, 92 to 100 °C.
As for `NC(=O)c1cccc(Cn2ccc(OCc3ccc(F)cc3F)c(Br)c2=O)c1`, the melting point lay in the range of 198 to 201 °C.
Turning to `COC(=O)CCNC(=O)C1CCCN1C(=O)OC(C)(C)C` (configuration not stated), the melting point stood at 70 °C.
As for `ON=Cc1ccccc1OCc1ccc(Cl)cc1`, the melting point lay within 122 to 124 °C.
With `O=C1CC(C(F)(F)F)Oc2cc(Cl)c(Cl)cc21` (configuration not stated), the melting point fell in the range of 94.5 to 97 °C.
Consider `CCOC(=O)c1c[nH]c(SC(F)(F)F)c1-c1ccc(Cl)cc1`, for which the melting point fell in the range of 162 to 164 °C.
`CC(C)(C)OC(=O)C[C@H](NC(=O)c1cccc(NC(=O)Cc2ccc(C(N)=S)cc2)c1)C(=O)N[C@@H](Cc1ccccc1)C(=O)OC(C)(C)C`: the melting point was determined as 99 °C.
`COc1ccc2c(c1)C(=O)CC1(CCN(SCCc3cc(=O)n(C)c(=O)n3C)CC1)O2` had a melting point of 191 to 194 °C.
As to `CC1(C)C(=O)CC(=O)C(C)(C)C1=O`, the melting point is 92.5 to 93 °C.
As for `COC(=O)[C@H]1C[C@H]2C(=O)NCCN2C1`, the melting point was in the range of 70 to 74 °C.
Compound `Cc1nc(N)nc(N)c1OCCCOc1ccccc1C(F)(F)F` showed a melting point of 132 to 134 °C.
`N#C/C=C/c1cccc(Cl)c1` came in with a melting point of 26 to 28 °C.
With `NC(=O)c1ccc(Cl)c2c1CC([N+](=O)[O-])CO2` (configuration not stated), the melting point was in the range of 193 to 194 °C.
As for `COc1ccc(NS(=O)(=O)c2ccc(N3CCC(NCC(O)c4ccc(O)c(NS(C)(=O)=O)c4)CC3)cc2)cc1OC` (configuration not stated), the melting point was in the range of 205 to 218 °C.
Then `CCNCC(=O)Nc1ccc2c(c1)C(=O)c1cc(NC(=O)CNCC)ccc1C2=O`, with 145 °C; and `NC(=O)C1(CCCN2CCCCC2)CC=CCC1c1ccccc1` (configuration not stated), with 121 to 122 °C.
With `CC[C@H](C)[C@H](N)C(=O)N[C@@H](Cc1ccc(OC(C)(C)C)cc1)C(=O)N[C@@H](C)C(=O)NCc1c(OC)ccc2c1Oc1c(ccc(OC)c1CC(=O)O)C2(C)C`, the melting point lay within 146 to 149 °C.
With `O=C1NC(=O)C2(CCOc3ccc(F)cc32)N1` (configuration not stated) the figure was 239 to 241 °C.
In the case of `O=[N+]([O-])c1cccc(/C=C/c2nc(C3CC3)cs2)c1`, the melting point lay in the range of 90 to 95 °C.
`CC1(C)CCC(C)(C)c2cc(C(=O)OCc3ccc(C(=O)OCc4ccccc4)cc3)ccc21` gave a melting point of 78 to 79 °C.
In turn, `CCOC(=O)C1(c2ccccc2)CCN(C2CCC(C#N)(c3ccccn3)CC2)CC1` (configuration not stated) yielded a melting point of 157 °C.
Compound `CCOC(=O)c1cn(C2CC2)c2nc3c(F)c(F)c(F)cc3cc2c1=O` had a melting point of 260 °C.
With `CCCCCCC(O)CNCCO` (configuration not stated), the melting point was found to be 45 °C.
Consider `COC(=O)c1cc(C)ccc1NC(=O)N(C)C`, for which the melting point stood at 92 °C.
For the compound `FC(F)(F)c1cc(-c2ccc(Cl)cc2)nc(-n2cnc(I)c2)n1`, the melting point worked out at 258 °C.
Compound `COC(=O)C1Oc2ccc(F)cc2C(C)(c2ccccc2)O1` (configuration not stated) yielded a melting point of 95 °C.
`CC(C)(C)OC(=O)Nc1ccc(C#Cc2ccc(F)cc2)cc1NC(=O)CC(=O)c1ccnc(-n2ccnc2)c1` showed a melting point of 169 °C.
Regarding `COC(=O)c1cccc(-c2cc(-c3ccc(C(F)(F)F)cc3)on2)c1`, the melting point is 139 to 140 °C.
As for `Cc1c[nH]c(=O)n(-c2cc(C(=O)OC(C)C)c(Cl)cc2F)c1=O`, the melting point is 170 to 173 °C.
`CCC(C)(C)c1nc(C(C)C)[nH]c1C(C)(C)CC` returned a melting point of 28 °C.
Consider `COc1ccc(Cn2c(=S)[nH]c(=O)c3[nH]cnc32)cc1OC1CCCC1`, for which the melting point is 254 to 265 °C.
The compound `CCCCn1cc(C(=O)OCC)c(=O)c2oc3ccc(Cl)cc3c(=O)c21` displayed a melting point of 226 to 228 °C.
With `CNC(=O)c1cccnc1CC(=O)c1ccc(Cl)cc1`, the melting point lay within 162 to 163 °C.
With `CC(CCCO)C(c1cc(F)ccc1F)S(=O)(=O)c1ccc(Cl)cc1` (configuration not stated) the figure was 67 to 69 °C.
As to `COc1cc(Cl)c(N2CCN(c3cccc(C(F)(F)F)c3)CC2)c(Cl)c1`, the melting point is 87 to 89 °C.
Compound `COC(=O)c1cc(Cl)c(N)c2c1OCCCN2` showed a melting point of 92 to 95 °C.
As for `COc1ccc2c(Cc3ccc(O)cc3)c(-c3ccccc3)c(=O)oc2c1`, the melting point is 235 to 236 °C.
`COC1SC(c2ccncc2)=C(C)NC1=O` (configuration not stated) had a melting point of 134 to 135 °C.
The compound `CC(C)n1nc(-c2c(-c3ccccc3)nn3ccc(OCc4cccnc4)cc23)ccc1=O` showed a melting point of 145 to 146 °C.
The compound `Cc1cc(C(F)(F)F)cc(Oc2ccc(CCNc3ncnc4scnc34)cc2)n1` showed a melting point of 111 to 112 °C.
In turn, `CCCCCCCCCCCCCCCCCCS(=O)c1cc2ccccc2cc1O` (configuration not stated) had a melting point of 107 to 108 °C.
Take `COc1ccc(O)c(C(=O)NCCc2ccc([N+](=O)[O-])cc2)c1`: the melting point is 200 °C.
Then `Cn1c(N)c2ncn(C3OC(CO)C(O)C3O)c2nc1=O` (configuration not stated), with 262 to 263 °C.
In turn, `CCN(CC)CC1CCCN(CCNC(=O)N2c3cc(Cl)ccc3C(=O)Nc3cccnc32)C1` (configuration not stated) yielded a melting point of 125 °C.
The compound `CS(=O)(=O)Nc1ccc(NC(=O)CCCc2ccc(N=C(N)c3cccs3)cc2)cc1` registered a melting point of 187 to 188 °C.
Then `O=C(O)C1=Cc2cc(Cl)c(Cl)cc2SC1C(F)(F)F` (configuration not stated), with 262 to 264 °C.
With `COc1cc(N(C(C)=O)c2c(C#N)cnc3ccsc23)c(Cl)cc1Cl`, the melting point fell in the range of 202 to 204 °C.
As to `CC1(C)C=C(N2CCCC2=O)c2cc(Cl)ccc2O1`, the melting point lay within 123 to 125 °C.
As to `O=C(O)c1cc2ccccc2c(-c2cccc(I)c2)n1`, the melting point was in the range of 145 to 146 °C.

The values above are taken from a melting point compilation (Tetko et al.; mined from patent text by program, amines drawn as free bases though some values may be those of a salt).
